Experimental findings from patent US6642003B2, “Human glucose-dependent insulin-secreting cell line” (Cedars-Sinai Medical Center, priority 2001, dated 2003) are described below.

Assay [1] has as its system ARIP cells. Briefly: Insulin release into culture medium (RIA), ARIP cells. Format: cell-based, rat. Here is the method:
Rat (ARIP) and human (PANC-1) ductal cell lines were respectively a gift from Dr. J. M. Egan (National Institute on Aging, Baltimore, Md.) or purchased from ATCC (American Type Culture Collection; Manassas, Va.). ARIP cells were cultured in F12 medium (Gibco-BRL, Gaithersburg; Md.) containing 100 μg/ml penicillin, 50 μg/ml streptomycin and 10% fetal calf serum (FCS; Gibco-BRL) at 37° C. under a humidified condition of 95% air and 5% CO2. PANC-1 cells were cultured in DMEM medium supplemented with antibiotics and FCS, as indicated for F12 medium. Treatment with human GLP-1 (H-6795, Bachem; King of Prussia, Pa.) was carried out using cells grown to 80% of confluence, after washing the cell layer with serum-free medium and a “wash-out” incubation for 6-h with serum free medium. To determine dose response to GLP-1, cells were cultured with fresh serum-free medium containing increasing concentration of GLP-1 (0.1, 1, 10, 20 nM), or vehicle alone. At the completion of the experiment, media and cells were collected. To determine the time course of response, cells were cultured in serum-free medium with GLP-1 (10 nM) for 0, 12, 24, 48, 72 or 96 h. Control dishes were cultured with vehicle alone, or with the peptide receptor antagonist of GLP-1, Exendin-9 (100 nM) for 72 h (gift Dr. J. M. Egan). The glucose concentration in the culture medium was 12 mM for both cell lines.
PANC-1 (parental, IDX-1-transfected, and neomycin-transfected) cells and ARIP (only parental) cells were plated at density of 10^6 cells/well in a 6 well plate. Once the cells reached 80% of confluence, they were washed with serum-free medium containing 12 mM glucose and exposed to fresh serum-free medium for increasing length of time (0, 12, 24, 48, 72, 96 h) in the presence of various concentrations of GLP-1 (0.1, 1, 10, 20 nM) or vehicle. Glucose-dependent insulin secretion was evaluated by culturing the cells in the presence of a determined concentration of GLP-1 (10 nM for 72 h) with increasing concentration of glucose in the culture medium ([…]). Insulin released into the medium was measured by RIA (Linco Research Inc.; St. Charles, Mass.). Total insulin accumulation in the culture medium was then normalized for total cellular protein content per each Individual cultures.
Total cellular protein content was measured by utilizing the Bradford method (Bio-Rad; Richmond, Calif.). The amount of proteins measured was used as a correction factor for determining the relative amount of medium to be assayed for each individual RIA for insulin.

For assay [2], the system named is PANC-1 cells. Briefly: RT-PCR of islet β-cell specific transcripts, parental PANC-1 cells. Format: cell-based, human. The note with it: GLP-1 10 nM for 96 h. Here is the method: After the treatment of ARIP and PANC-1 cells with GLP-1, Exendin-9, or vehicle, for the described length of time and the various doses, the culture medium was removed and the cells were washed (twice) with serum-free medium. Total RNA was isolated using the TRiazol-method (Gibco-BRL), and treated with DNase (Amplification Grade, GibcoBRL) in 20 mmol/l Tris-HCL (pH 8.4), 2 mmol/l MgCl2, and 50 mmol/l KCl to remove any traces of contaminating genomic DNA. RNA (2.5 μg) was then subjected to reverse transcription (RT reagents; Promega; Madison, Wis.). RT-PCR was undertaken in a volume of 50 μl of buffer containing 50 mmol/l KCl, 10 mmol/l Tris-HCl, 3.5 mmol/l MgCl2, 200 μmol/l each dNTPs, and 0.4 μmol/l each of sense and antisense primers to rat or human insulin (depending on the specific cell from which the RNA was extracted). Amplification was performed for 30 cycles at the denaturing temperature of 94° C. for 1 min, annealing temperature of 60° C. for 45 sec, and an extension temperature of 72° C. for 1 min. […] These included more irregular and variable cell shapes, with a cytoplasm less homogenous and “rougher” in appearance than control culture.
Treatment with GLP-1 induces the differentiation of ductal epithelial cells into insulin-producing cells. FIG. 2 illustrates a series of cell cultures grown with or without GLP-1 (10 nM) for 72 h. […]

The test system of assay [3] is ARIP cells. Description: Immunocytochemistry for insulin, ARIP cells. Format: cell-based, rat. To be noted: GLP-1 10 nM, 72 h. Here is the method:
(§1) Cells were cultured on monocoated chamber slides (Nalge Nunc International; Naperville, Ill.) in the presence of GLP-1 (10 nM), or vehicle, for 72 h.
(§2) For the detection of insulin, cells were washed and fixed with 3% paraformaldehyde for 4 h, at room temperature in PBS, solubilized with 0.1% (vol/vol) Triton X-100 in PBS for 5 min. Cells were then incubated sequentially with an anti-insulin antibody and a secondary antibody, as described by the manufacturer (Biomeda Corp.; Foster City, Calif.). The cells were examined using a Ziess Axiophoto microscope (New York, N.Y.).

Assay [4] deals with PANC-1 cells. Description: Immunocytochemistry for insulin, parental PANC-1 cells. Format: cell-based, human. To be noted: presence or absence of GLP-1. The protocol:
as §1, §2

Where [5] appears, read: serum-free medium, 12 mM glucose, 72 h.

For glucagon-like peptide-1 [GLP-1], the “lowest concentration of glucose required to induce the secretion of insulin” value in assay [1] (GLP-1 10 nM for 72 h) is given as 3 mM. Besides, in assay [1] (GLP-1 10 nM for 72 h, increasing glucose), the “glucose dependence of insulin release” value was “release insulin in a glucose-dependent manner”. In addition, in assay [1] (GLP-1 10 nM, 12 mM glucose), the “time of maximal insulin secretion” value worked out at 48 h and the “time of plateau of insulin secretion” value worked out at 72 h. In assay [1] (setting [5]), the “GLP-1 concentration at plateau of insulin accumulation in the culture medium” value is reported as 20 nM and the “minimum concentration of GLP-1 required to transform ARIP ductal cells into insulin producing cells” value is 1 nM. In addition, the RT-PCR for insulin result in assay [2] was “consistently negative”. For the same substance, the insulin immunostaining entry in assay [3] is “positive immunoreactivity for insulin”. Also, the insulin immunostaining result in assay [4] is “No positive insulin immunostaining”.
